Data: US20210179680A1, “POLYPEPTIDE, DERIVATIVES THEREOF, AND APPLICATION THEREOF IN PREPARATION OF DRUGS HAVING RESISTANCE TO PULMONARY FIBROSIS” (priority 2016, published 2021)
Bridge positions count the residues as written; N and C are the ends. Square brackets hold non-standard residues; d marks the D form. Peptide text beside a SMILES is read from it. S5 = C=CCCC[C@](C)(N)C(=O)O

System: mice with bleomycin-induced pulmonary fibrosis
Experiment: Pulmonary function (Flexivent) in mice with pulmonary fibrosis
Format: in vivo, C57BL/6 mice
Settings: 2 mg/kg i.p.
Experimental: Male C57BL/6 mice were fasted overnight, then anesthetized with 45 mg/kg sodium pentobarbital by injection intraperitoneally (i.p.), and intratracheally injected with bleomycin at a dose of 3 U/kg. The specific operation steps are as follows: cut the neck skin of the mouse with as little trauma as possible, expose the trachea with the assistance of elbow ophthalmic forceps, puncture the trachea and inject about 50 μL of bleomycin into the trachea with a microsyringe, rotate the mouse quickly and stand it upright for 5 minutes in order to make bleomycin evenly enter the left and right lobe, thereby constructing an animal model. The whole operation was performed at a surgical table at about […]. Mice in the sham operation group were intratracheally injected with an equal amount of physiological saline for injection.
(§1) Pulmonary function is a gold indicator for clinical detection of pulmonary fibrosis in patients. The decline of lung function is generally accompanied by an aggravation of fibrosis, while the improvement of lung function generally represents the recovery of lung tissue structure. Pulmonary fibrosis models were prepared according to the method described in Example 2 and administered in groups according to Table 3. On the 28th day after the construction of the animal model, the mice were anesthetized with sodium pentobarbital (45 mg/kg, i.p.). Lung function was tested by the Flexivent Small-animal respiratory mechanics and the testing methods were TLC and SnapShots (Testing method refers to Lv X, Wang X, Li K, et al. Rupatadine Protects against Pulmonary Fibrosis by Attenuating PAF-Mediated Senescence in Rodents [J]. PloS one, 2013, 8(7): e68631).
as §1, with “lung function also generally represents” for “lung function generally represents”, “to Table 9. 28 days later, the mice” for “to Table 3. On the 28th day after the construction of the animal model, the mice”, “Senescence in Rodents[J]. PloS one,” for “Senescence in Rodents [J]. PloS one,”

[1] = Table 3 groups, 28th day after model construction

Compound	Dynamic compliance (mL/cmH2O) [1] [mL/cmH2O]	Dynamic elasticity (cmH2O./mL) [1] [cmH2O./mL]	Dynamic resistance (cmH2O · s/Ml) [1] [cmH2O · s/Ml]	Inspiratory capacity [1] [mL]	pulmonary function of mice with pulmonary fibrosis (in words) (Table 3 groups, FIG. 11)	Dynamic compliance (mL/cmH2O) (Table 9 groups, 28 days later)	Dynamic elasticity (cmH2O./mL) (Table 9 groups, 28 days later)	Dynamic resistance (cmH2O · s/Ml) (Table 9 groups, 28 days later)	Inspiratory capacity (Table 9 groups, 28 days later) [mL]	pulmonary function of mice with pulmonary fibrosis (in words) (Table 9 groups, FIG. 17)
CC(C)C[C@H](NC(=O)[C@H](CCCCN)NC(=O)[C@H](CCCCN)NC(=O)[C@H](C)NC(=O)[C@H](CS)NC(=O)[C@]1(C)CCCC=CCCC[C@](C)(NC(=O)[C@H](CC(C)C)NC(=O)[C@@H](N)Cc2c[nH]cn2)C(=O)N[C@@H](C)C(=O)N[C@@H](CS)C(=O)N[C@@H](Cc2ccccc2)C(=O)N1)C(=O)N[C@@H](CCCCN)C(=O)N[C@@H](CCCCN)C(=O)N[C@@H](CCCNC(=N)N)C(=O)O [S3, His-Leu-S5-Ala-Cys-Phe-S5-Cys-Ala-Lys-Lys-Leu-Lys-Lys-Arg] (H-HL[S5]ACF[S5]CAKKLKKR-OH; staple 3-7; N-terminus and C-terminus assumed)	0.255	47	1.143	0.646	improved					
CSCC[C@H](NC(=O)[C@H](CC(C)C)NC(=O)[C@@H](N)Cc1c[nH]cn1)C(=O)N[C@@H](C)C(=O)N[C@@H](CS)C(=O)N[C@@]1(C)CCCC=CCCC[C@@](C)(C(=O)N[C@@H](CCCCN)C(=O)N[C@@H](CC(C)C)C(=O)N[C@@H](CCCCN)C(=O)N[C@@H](CCCCN)C(=O)N[C@@H](CCCNC(=N)N)C(=O)O)NC(=O)[C@H](C)NC(=O)[C@H](CS)NC(=O)[C@H]([C@@H](C)O)NC1=O [S6, His-Leu-Met-Ala-Cys-S5-Thr-Cys-Ala-S5-Lys-Leu-Lys-Lys-Arg] (H-HLMAC[S5]TCA[S5]KLKKR-OH; staple 6-10; N-terminus and C-terminus assumed)	0.2683	52.17	1.067	0.558	improved					
CSCC[C@H](NC(=O)[C@H](CC(C)C)NC(=O)[C@@H](N)Cc1c[nH]cn1)C(=O)N[C@@H](C)C(=O)N[C@@H](CS)C(=O)N[C@@H](Cc1ccccc1)C(=O)N[C@H](C(=O)N[C@@H](CS)C(=O)N[C@@H](C)C(=O)N[C@@H](CCCCN)C(=O)N[C@@]1(C)CCCC=CCCC[C@@](C)(C(=O)O)NC(=O)[C@H](CCCCN)NC(=O)[C@H](CCCCN)NC(=O)[C@H](CC(C)C)NC1=O)[C@@H](C)O [S11, His-Leu-Met-Ala-Cys-Phe-Thr-Cys-Ala-Lys-S5-Leu-Lys-Lys-S5] (H-HLMACFTCAK[S5]LKK[S5]-OH; staple 11-15; N-terminus and C-terminus assumed)	0.235	53	1.267	0.658	improved					
CSCC[C@@H]1NC(=O)[C@@](C)(NC(=O)[C@@H](N)Cc2c[nH]cn2)CCCC=CCCC[C@@](C)(C(=O)N[C@H](C(=O)N[C@@H](CS)C(=O)N[C@@H](C)C(=O)N[C@@H](CCCCN)C(=O)N[C@@H](CCCCN)C(=O)N[C@@H](CC(C)C)C(=O)N[C@@H](CCCCN)C(=O)N[C@@H](CCCCN)C(=O)N[C@@H](CCCNC(=N)N)C(=O)O)[C@@H](C)O)NC(=O)[C@H](CS)NC(=O)[C@H](C)NC1=O [S2, His-S5-Met-Ala-Cys-S5-Thr-Cys-Ala-Lys-Lys-Leu-Lys-Lys-Arg] (H-H[S5]MAC[S5]TCAKKLKKR-OH; staple 2-6; N-terminus and C-terminus assumed)	0.2683	55.33	1.25	0.688	improved					
S21: chimeric polypeptide Antp-MR2, amino acid sequence SEQ ID NO: 21 (RQIKIWFQNRRMKWKKGGHLMACFTCAKKLKKR; chimeric polypeptide Antp-MR2 S21)						0.264	55.33	1.355	0.616	improved
CSCC[C@H](NC(=O)[C@H](CC(C)C)NC(=O)[C@@H](N)Cc1c[nH]cn1)C(=O)N[C@@H](C)C(=O)N[C@@]1(C)CCCC=CCCC[C@@](C)(C(=O)N[C@@H](CCCCN)C(=O)N[C@@H](CCCCN)C(=O)N[C@@H](CC(C)C)C(=O)N[C@@H](CCCCN)C(=O)N[C@@H](CCCCN)C(=O)N[C@@H](CCCNC(=N)N)C(=O)O)NC(=O)[C@H](CS)NC(=O)[C@H]([C@@H](C)O)NC(=O)[C@H](Cc2ccccc2)NC1=O [S5, His-Leu-Met-Ala-S5-Phe-Thr-Cys-S5-Lys-Lys-Leu-Lys-Lys-Arg] (H-HLMA[S5]FTC[S5]KKLKKR-OH; staple 5-9; N-terminus and C-terminus assumed)	0.3117	47.5	0.85	0.738	improved					
S19: chimeric polypeptide Pep2-MR2, amino acid sequence SEQ ID NO: 19 (HLYVSPWGGHLMACFTCAKKLKKR; chimeric polypeptide Pep2-MR2 S19)						0.33	38.67	1.143	0.692	improved
CSCC[C@@H]1NC(=O)[C@H](CC(C)C)NC(=O)[C@@](C)(N)CCCC=CCCC[C@@](C)(C(=O)N[C@@H](Cc2ccccc2)C(=O)N[C@H](C(=O)N[C@@H](CS)C(=O)N[C@@H](C)C(=O)N[C@@H](CCCCN)C(=O)N[C@@H](CCCCN)C(=O)N[C@@H](CC(C)C)C(=O)N[C@@H](CCCCN)C(=O)N[C@@H](CCCCN)C(=O)N[C@@H](CCCNC(=N)N)C(=O)O)[C@@H](C)O)NC(=O)[C@H](C)NC1=O [S1, S5-Leu-Met-Ala-S5-Phe-Thr-Cys-Ala-Lys-Lys-Leu-Lys-Lys-Arg] (H-[S5]LMA[S5]FTCAKKLKKR-OH; staple 1-5; N-terminus and C-terminus assumed)	0.2883	52.17	1.15	0.71	improved					
CSCC[C@H](NC(=O)[C@H](CC(C)C)NC(=O)[C@@H](N)Cc1c[nH]cn1)C(=O)N[C@@H](C)C(=O)N[C@@H](CS)C(=O)N[C@@H](Cc1ccccc1)C(=O)N[C@H](C(=O)N[C@@H](CS)C(=O)N[C@@H](C)C(=O)N[C@@H](CCCCN)C(=O)N[C@@H](CCCCN)C(=O)N[C@@H](CC(C)C)C(=O)N[C@@H](CCCCN)C(=O)N[C@@H](CCCCN)C(=O)N[C@@H](CCCNC(=N)N)C(=O)O)[C@@H](C)O [MR2] (H-HLMACFTCAKKLKKR-OH; N-terminus and C-terminus assumed)	0.22	68.83	1.775	0.456	improved					
CSCC[C@H](NC(=O)[C@H](CC(C)C)NC(=O)[C@@H](N)Cc1c[nH]cn1)C(=O)N[C@@H](C)C(=O)N[C@@H](CS)C(=O)N[C@@H](Cc1ccccc1)C(=O)N[C@H](C(=O)N[C@@H](CS)C(=O)N[C@@]1(C)CCCC=CCCC[C@@](C)(C(=O)N[C@@H](CCCCN)C(=O)N[C@@H](CCCNC(=N)N)C(=O)O)NC(=O)[C@H](CC(C)C)NC(=O)[C@H](CCCCN)NC(=O)[C@H](CCCCN)NC1=O)[C@@H](C)O [S9, His-Leu-Met-Ala-Cys-Phe-Thr-Cys-S5-Lys-Lys-Leu-S5-Lys-Arg] (H-HLMACFTC[S5]KKL[S5]KR-OH; staple 9-13; N-terminus and C-terminus assumed)	0.27	44.5	1.033	0.686	improved					
